In PubChem BioAssay AID1896 (NMMLSC, 2009):
Active and inactive are the calls of the source. The rule behind the calls is not given here.

Molecular target: Mitogen-activated protein kinase kinase kinase 3 (Homo sapiens) (UniProt Q99759)
Assay: inhibitors of MEK5 binding to MEKK3, dose response, biochemical, bead multiplex flow cytometry, wildtype (AID 1896)
Conditions: bead-based multiplex flow cytometry, MEK5-MEKK3 PB1 binding; for Ki: measured here: Ki from EC50

Sequence of Mitogen-activated protein kinase kinase kinase 3 (Homo sapiens) (Q99759 whole entry, looked up): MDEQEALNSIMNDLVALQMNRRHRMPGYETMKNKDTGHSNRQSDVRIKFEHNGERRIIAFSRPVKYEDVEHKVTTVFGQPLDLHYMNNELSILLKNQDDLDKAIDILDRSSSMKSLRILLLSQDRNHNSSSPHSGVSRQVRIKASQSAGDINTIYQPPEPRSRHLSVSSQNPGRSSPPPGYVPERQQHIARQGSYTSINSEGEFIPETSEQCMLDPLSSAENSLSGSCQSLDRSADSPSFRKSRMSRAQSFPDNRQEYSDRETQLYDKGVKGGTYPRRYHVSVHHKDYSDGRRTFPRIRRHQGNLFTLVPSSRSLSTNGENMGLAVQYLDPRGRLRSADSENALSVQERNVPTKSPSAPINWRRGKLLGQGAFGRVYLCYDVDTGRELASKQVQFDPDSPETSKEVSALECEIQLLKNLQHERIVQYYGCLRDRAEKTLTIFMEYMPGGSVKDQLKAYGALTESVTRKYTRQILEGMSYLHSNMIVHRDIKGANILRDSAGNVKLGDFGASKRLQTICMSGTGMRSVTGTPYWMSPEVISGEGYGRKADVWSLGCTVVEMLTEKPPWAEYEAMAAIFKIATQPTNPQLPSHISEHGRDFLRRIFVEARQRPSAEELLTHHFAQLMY

EC50 | Ki | Structure (SMILES)
> 30 µM (inactive) | – | O=C(OCC1O[C@@H](OC(=O)c2cc(O)c(O)c(O)c2)[C@@H](OC(=O)c2cc(O)c(O)c(O)c2)[C@@H](OC(=O)c2cc(O)c(O)c(O)c2)[C@@H]1OC(=O)c1cc(O)c(O)c(O)c1)c1cc(O)c(O)c(O)c1 (some centres undefined)
> 30 µM (inactive) | – | CCOC(=O)C1=C(c2ccccc2)NC(N)=NC1c1ccc(OCc2ccc(Cl)cc2)c(OC)c1 (centres undefined)
> 30 µM (inactive) | – | CCCCCCCCCCOC(=O)Cn1c(COc2cccc(C)c2)[n+](C)c2ccccc21
> 30 µM (inactive) | – | CCCCCCCCCCOC(=O)Cn1c(COc2ccccc2C)[n+](C)c2ccccc21
> 30 µM (inactive) | – | COc1ccc(CNC[C@@H](CCCCN(C)Cc2ccc(OC)cc2)N2C[C@H](c3ccccc3)N(CCc3ccc(Cl)c(Cl)c3)C(=O)C2=O)cc1
1.76 µM | 1.5 µM | O=C1Nc2ccc(Br)cc2/C1=N/N=C/C1=C(N2CCOCC2)C(=C\c2ccccc2)/CC1
> 30 µM (inactive) | – | O=C1c2ccccc2-c2onc3ccc(NCCCn4ccnc4)c1c23
> 30 µM (inactive) | – | COCCNC(=O)CN(c1cc(Cl)ccc1OC)S(=O)(=O)c1ccc(C)c([N+](=O)[O-])c1
> 30 µM (inactive) | – | COc1ccc(NC(=O)N(Cc2cc3cc(C)ccc3[nH]c2=O)CC2CCCO2)cc1 (centres undefined)
> 30 µM (inactive) | – | FC(F)(F)c1cccc(NC(=S)N(CCCN2CCCC2)Cc2cccn2Cc2ccc(Cl)cc2)c1
> 30 µM (inactive) | – | CCCCN(CC)CCNC(=O)c1cc2c(-c3ccc(Cl)cc3)nn(C)c2s1
2.52 µM | 2.15 µM | CCN(CC)CCOC(=O)c1ccc(N/C=C(/C#N)c2nc(-c3ccc(OC)c(OC)c3)cs2)cc1
> 30 µM (inactive) | – | S=c1[nH]nc(-c2ccc(Cl)cc2)n1-c1ccc2c(c1)OCCO2
3.98 µM | 3.41 µM | Cc1cc2cc(CNC(=O)NC3CCCCC3)ccc2[nH]1
> 30 µM (inactive) | – | CCc1ccc(Nc2n[n+](-c3ccccc3)c(-c3ccc(OC)c(Br)c3)s2)cc1
> 30 µM (inactive) | – | CCOC(=O)N1CCN(c2c(N3CCN(c4ccccc4F)CC3)c(=O)c2=O)CC1
> 30 µM (inactive) | – | C#CCOCCOCCOCCNc1nc(N2CCN(C(=O)[C@H]([C@@H](C)CC)n3cc([C@@H](N)Cc4ccc(O)cc4)nn3)CC2)nc(N2CCN(C(=O)[C@H](CCCCN)n3cc([C@@H](N)CC(C)C)nn3)CC2)n1
> 30 µM (inactive) | – | Cc1c2cc(O)c(=O)cc-2oc2cc(O)c(O)cc12
> 30 µM (inactive) | – | CCCCCCCCCCOC(=O)Cn1c(COc2ccc(C)cc2)[n+](C)c2ccccc21
> 30 µM (inactive) | – | CCCOc1ccc2c(c1)C(=NN=C(N)N)c1cc(OCCC)ccc1-2
> 30 µM (inactive) | – | CCOC(=O)C(C(=O)OCC)c1cc(Br)c2noc3c2c1C(=O)c1ccccc1-3
11.9 µM | 10.1 µM | Cc1cc2ccccc2n1CCNC(=O)c1ccc(Br)o1
> 30 µM (inactive) | – | Cc1nc(N)sc1-c1csc(Nc2ncccn2)n1
3.93 µM | 3.36 µM | CCN1C(c2ccccc2)=C(c2ccccc2)S/C1=C\C=C1/SC(=S)N(C)C1=O
> 30 µM (inactive) | – | Nc1ccc2nc(-c3ccc(-c4nc5ccc(N)cc5[nH]4)cc3)[nH]c2c1
1.29 µM | 1.1 µM | CCCCn1c(O)c(/C=C/C=C/C=Nc2ccccc2)sc1=S

EC50 | Ki | Structure (SMILES)
> 30 µM (inactive) | – | C#CCOCCOCCOCCNc1nc(N2CCN(C(=O)[C@H]([C@@H](C)CC)n3cc([C@@H](N)CC(C)C)nn3)CC2)nc(N2CCN(C(=O)[C@H](Cc3cc4ccccc4[nH]3)n3cc([C@@H](N)CC(C)C)nn3)CC2)n1
10.6 µM | 9.04 µM | CCN1/C(=C/c2ccc3cc(C)cc(C)c3[n+]2CC)Sc2cc(C)ccc21
> 30 µM (inactive) | – | COc1ccc(N2CC(C(=O)Nc3nnc(SCc4ccccn4)s3)CC2=O)cc1 (centres undefined)
> 30 µM (inactive) | – | Cc1ccc(-c2csc(NC(=O)C[n+]3cc(-c4ccc(C)cc4)n4c3CCC4)n2)cc1
> 30 µM (inactive) | – | CC[C@@H](C)[C@H](CNC)NC[C@@H](Cc1cccc2ccccc12)NCCc1cccc(C(F)(F)F)c1
> 30 µM (inactive) | – | C#CCOCCOCCOCCNc1nc(N2CCN(C(=O)[C@H]([C@@H](C)CC)n3cc([C@@H](N)CC(C)C)nn3)CC2)nc(N2CCN(C(=O)[C@H](Cc3cc4ccccc4[nH]3)n3cc([C@@H](N)Cc4ccc(O)cc4)nn3)CC2)n1
> 30 µM (inactive) | – | CCN1CCN(CCNC(=O)c2ccc(/C=C3/Sc4ccccc4N(Cc4cccc(C)c4)C3=O)cc2)CC1
21.1 µM | 18.1 µM | Nc1ccc(Nc2ccccc2N)cc1
> 30 µM (inactive) | – | Cc1ccc(-n2cc(CNCCCn3ccnc3C)c(-c3ccc(F)cc3)n2)cc1
4.55 µM | 3.89 µM | CCNc1ccc2noc3c2c1C(=O)c1ccccc1-3
> 30 µM (inactive) | – | C#CCOCCOCCOCCNc1nc(N2CCN(C(=O)[C@H](Cc3cc4ccccc4[nH]3)n3cc([C@@H](N)CC(C)C)nn3)CC2)nc(N2CCN(C(=O)[C@H](Cc3cc4ccccc4[nH]3)n3cc([C@@H](N)CC(C)C)nn3)CC2)n1
> 30 µM (inactive) | – | CCC(/C=C1\Sc2ccc(OC)cc2N1CC)=C\c1sc2ccc(OC)cc2[n+]1CCCS(=O)(=O)[O-]
> 30 µM (inactive) | – | CSc1cccc(NC(=S)N(CCCN2CCCC2)Cc2cccn2Cc2ccc(Cl)cc2)c1
7.87 µM | 6.73 µM | Nc1cc2nc[nH]c2cc1N
> 30 µM (inactive) | – | COC(=O)C1=C(C)N(Cc2ccccc2)C(=NCc2cccc(C(F)(F)F)c2)N[C@H]1c1cccc(F)c1
> 30 µM (inactive) | – | CCN1CCN(CCNC(=O)c2ccc(/C=C3/Sc4ccccc4N(Cc4cccc(Cl)c4)C3=O)cc2)CC1
> 30 µM (inactive) | – | Cc1ccccc1OCC(O)CNC1CCC(NCC(O)COc2ccccc2C)CC1 (centres undefined)
> 30 µM (inactive) | – | COc1cc(CNCCc2c[nH]c3ccccc23)ccc1OCc1ccccc1F
> 30 µM (inactive) | – | CCN1CCN(Cc2ccc(NC(=O)c3cc(NC(=O)c4cncc(-c5cccs5)c4)cc(OC)c3)cc2C(F)(F)F)CC1
> 30 µM (inactive) | – | Cc1sc(NC(=O)c2ccccc2)c(C(c2ccccn2)N2CCN(CCO)CC2)c1C (centres undefined)
> 30 µM (inactive) | – | Cc1ccc(CN2CCSc3ccc(C(=O)NC4CCN(Cc5ccccc5)CC4)cc32)cc1
> 30 µM (inactive) | – | COCc1c(C#N)c(NCCc2ccccc2)nc(C)c1[N+](=O)[O-]
> 30 µM (inactive) | – | CCCCCCCCCCOC(=O)Cn1c(COc2ccccc2)[n+](C)c2ccccc21
> 30 µM (inactive) | – | C#CCOCCOCCOCCNc1nc(N2CCN(C(=O)[C@H](CCC(=O)O)n3cc(C(N)CO)nn3)CC2)nc(N2CCN(C(=O)[C@H](Cc3cc4ccccc4[nH]3)n3cc(C(N)[C@H](C)CC)nn3)CC2)n1 (some centres undefined)
> 30 µM (inactive) | – | CCCN(CCC)CCNC(=O)c1cc2c(-c3ccc(Cl)cc3)nn(C)c2s1
> 30 µM (inactive) | – | CC(C)n1cc(CN2CCC(C(=O)Nc3cccc(-c4cccc(Cl)c4)c3)CC2)cn1

EC50 | Ki | Structure (SMILES)
1.13 µM | 0.97 µM | COc1ccc(-n2nc3c(N)n[nH]c3cc2=O)cc1
> 30 µM (inactive) | – | Cc1ccc(-c2c[n+](CC(=O)Nc3nc(-c4ccc(F)cc4)cs3)c3n2CCC3)cc1
> 30 µM (inactive) | – | C#CCOCCOCCOCCNc1nc(N2CCN(C(=O)[C@H](Cc3cc4ccccc4[nH]3)n3cc([C@@H](N)C(C)CC)nn3)CC2)nc(N2CCN(C(=O)[C@H](Cc3cc4ccccc4[nH]3)n3cc([C@@H](N)Cc4ccc(O)cc4)nn3)CC2)n1 (some centres undefined)
> 30 µM (inactive) | – | COc1ccc(-c2[nH]ncc2CN2CCCCCCC2)c(OC)c1
> 30 µM (inactive) | – | CN(C)c1ccc(NC(=O)CN2CCC(O)(c3ccccc3)CC2)cc1
1.21 µM | 1.03 µM | CN(C)c1ccc(/C=C/C=C2/SC(=S)N(c3ccccc3)C2=O)cc1
> 30 µM (inactive) | – | CCCCCCCCCCCCCCCC[n+]1cccc2ccccc21
> 30 µM (inactive) | – | CCN(CC)CCOC(=O)c1ccc(N/C=C(/C#N)c2nc(-c3ccc(OC)cc3)cs2)cc1
> 30 µM (inactive) | – | CCN1CCN(Cc2ccc(NC(=O)c3cc(NC(=O)C(=O)c4c[nH]c5ccccc45)cc(OC)c3)cc2C(F)(F)F)CC1
> 30 µM (inactive) | – | COc1ccc(Cn2cc3c(-c4ccc(F)cc4)nnc-3c3cc(OC)c(OC)cc32)cc1
> 30 µM (inactive) | – | O=C(NNc1c2ccccc2nc2ccccc12)c1cc2ccccc2cc1O
> 30 µM (inactive) | – | CN1CCN(CC(=O)N2CCn3c4c(c5cc(C6CCCCC6)ccc53)CCCC42)CC1 (centres undefined)
5.79 µM | 4.96 µM | CCN1/C(=C/c2ccc3cc(C)ccc3[n+]2CC)Sc2cc(C)c(C)cc21
> 30 µM (inactive) | – | C#CCOCCOCCOCCNc1nc(N2CCN(C(=O)[C@H]([C@@H](C)CC)n3cc([C@@H](N)CO)nn3)CC2)nc(N2CCN(C(=O)[C@H](Cc3cc4ccccc4[nH]3)n3cc([C@@H](N)C(C)CC)nn3)CC2)n1 (some centres undefined)
> 30 µM (inactive) | – | CCCCCCCCCC[N+](C)(C)CC/C=C1/c2ccccc2Sc2ccc(Cl)cc21
> 30 µM (inactive) | – | CCN1/C(=C/c2ccc3cc(C)ccc3[n+]2C)Sc2ccc3sccc3c21
> 30 µM (inactive) | – | COc1ccc(CSc2n[nH]c(C)n2)cc1[N+](=O)[O-]
4.14 µM | 3.54 µM | Cc1nn2c(N)csc2nc1=O
> 30 µM (inactive) | – | CCN(CC)CCOC(=O)c1ccc(NC(=O)c2cn(-c3ccccc3)nc2-c2cccs2)cc1
> 30 µM (inactive) | – | CCc1ccc(-c2nn(-c3ccccc3)cc2CSC(=N)N)cc1
> 30 µM (inactive) | – | CCOc1ccc(C2=C/C(=C/c3cccnc3)C(=O)O2)cc1
3.4 µM | 2.91 µM | CCN1C(c2ccccc2)=C(c2ccccc2)S/C1=C/C=C1\SC(=S)N(C)C1=O
> 30 µM (inactive) | – | CCCN1C(=O)/C(=C\C=C2/Sc3ccccc3N2CC)SC1=S
11.9 µM | 10.2 µM | O=C(Nc1ccc(C2=NCCN2)cc1)c1ccc(C(=O)Nc2ccc(C3=NCCN3)cc2)c([N+](=O)[O-])c1
> 30 µM (inactive) | – | CN1CCN(CC(O)COc2ccc(C34CC5CC(CC(C5)C3)C4)cc2)CC1 (centres undefined)
> 30 µM (inactive) | – | CC(=O)Nc1ccc(OCC(O)Cn2c3ccccc3c3ccccc32)cc1 (centres undefined)
